Laboratory results published in patent publication US20230148184A1, “COMPOUNDS AND METHODS FOR MODULATING SPLICING” (REMIX THERAPEUTICS INC., priority 2020, published 2023).

Columns and labels:
Type in all cases: cell-based
SMN2 CJ mRNA = test: Gene panel canonical junction qPCR assay, SMN2; conditions: decrease in CJ mRNA levels, RT-qPCR
Description: (§1) Compounds described herein were used to modulate RNA transcript abundance in cells. The expression of a target mRNA was measured by detecting the formation of an exon-exon junction in the canonical transcript (CJ). A compound mediated exon-inclusion event was detected by observing an increase in formation of a new junction with an alternative exon (AJ). Real-time qPCR assays were used to detect these splicing switches and interrogate the potency of various compounds towards different target genes. A high-throughput real time quantitative PCR (RT-qPCR) assay was developed to measure these two isoforms of the mRNA (CJ and AJ) for an exemplary gene, HTT, together with a control housekeeping gene, GAPDH or GUSB or PPIA, used for normalization. Briefly, the A673 or K562 cell line was treated with various compounds described herein (e.g., compounds of Formula (I)). After treatment, the levels of the HTT mRNA targets were determined from each sample of cell lysate by cDNA synthesis followed by qPCR.
(§2) The A673 cell line was cultured in DMEM with 10% FBS. Cells were diluted with full growth media and plated in a 96-well plate (15,000 cells in 100 ul media per well). The plate was incubated at 37° C. with 5% CO2 for 24 hours to allow cells to adhere. An 11-point 3-fold serial dilution of the compounds was made in DMSO then diluted in media in an intermediate plate. Compounds were transferred from the intermediate plate to the cell plate with the top dose at a final concentration of 10 uM in the well. Final DMSO concentration was kept at or below 0.25%. The cell plate was returned to the incubator at 37° C. with 5% CO2 for an additional 24 hours.
(§3) The K562 cell line was cultured in IMDM with 10% FBS. For K562, cells were diluted with full growth media and plated in either a 96-well plate (50,000 cells in 50 uL media per well) or a 384-well plate (8,000-40,000 cells in 45 uL media per well). An 11-point 3-fold serial dilution of the compounds were made in DMSO then diluted in media in an intermediate plate. Compound was transferred from the intermediate plate to the cell plate with the top dose at a final concentration of 10 uM in the well. Final DMSO concentration was kept at or below 0.25%. Final volume was 100 uL for 96-well plate and 50 uL for 384-well plate. The cell plate was then placed in an incubator at 37° C. with 5% CO2 for 24 hours.
(§4) The cells were then gently washed with 50 uL-100 uL cold PBS before proceeding to addition of lysis buffer. 30 uL-50 uL of room temperature lysis buffer with DNAse I (and optionally RNAsin) was added to each well. Cells were shaken/mixed thoroughly at room temperature for 5-10 minutes for lysis to take place and then 3 uL-5 uL of room temperature stop solution was added and wells were shaken/mixed again. After 2-5 minutes, the cell lysate plate was transferred to ice for RT-qPCR reaction setup. The lysates could also be frozen at −80° C. for later use.
(§5) In some cases, a direct lysis buffer was used. An appropriate volume of 3× lysis buffer (10 mM Tris, 150 mM NaCl, 1.5%-2.5% Igepal and 0.1-1 U/uL RNAsin, pH 7.4) was directly added to either K562 or A673 cells in media and mixed by pipetting 3 times. The plates were then incubated at room temperature with shaking/rocking for 20-50 minutes to allow for lysis to take place. After this time, the cell lysate plate was transferred to ice to set up for the RT-qPCR reactions. The lysates could also be frozen at −80° C. for later use.
(§6) To set up 10 uL RT-qPCR reactions, cell lysates were transferred to 384-well qPCR plates containing the master mix according to the table below. The plates were sealed, gently vortexed, and spun down before the run. The volumes were adjusted accordingly in some instances where the reaction was carried in 20 uL. The table below summarizes the components of the RT-qPCR reactions:
(§7) The RT-qPCR reaction was performed using a QuantStudio (ThermoFisher) under the following fast cycling conditions. […]

HTT mRNA = test: RT-qPCR splicing assay for HTT mRNA isoforms (canonical junction CJ and alternative junction AJ); conditions: A673 or K562 cell line, 24 hours compound treatment; for IC50: decrease in CJ mRNA; for AC50: increase in AJ mRNA
Description: as §1
Cells-to-CT 1-step kit: ThermoFisher A25602, Cells-to-CT lysis reagent: ThermoFisher 4391851C, TaqMan™ Fast Virus 1-Step Master Mix: ThermoFisher 4444436 GAPDH: VIC-PL, ThermoFisher 4326317E (Assay: Hs99999905_m1)—used for K562/suspension cell lines GUSB: VIC-PL, ThermoFisher 4326320E (Assay: Hs99999908_m1)—used for K562/suspension cell lines PPIA: VIC-PL, ThermoFisher 4326316E (Assay: Hs99999904_m1)—used for A673/adherent cell lines
as §2, §3, §4
as §5, with “use. […]” for “use.”

HTT CJ mRNA = test: Gene panel canonical junction qPCR assay, HTT; conditions: decrease in CJ mRNA levels, RT-qPCR
Description: as §1, §2, §3, §4, §5, §6, §7

Target C CJ mRNA = test: Gene panel canonical junction qPCR assay, Target C; conditions: decrease in CJ mRNA levels, RT-qPCR
Description: as §1, §2, §3, §4, §5, §6, §7

SMILES	IC50 (SMN2 CJ mRNA)	IC50 (HTT mRNA)	AC50 (HTT mRNA)	IC50 (HTT CJ mRNA)	IC50 (Target C CJ mRNA)
CN(c1ccc2c(n1)OCc1cc(-n3cc(N)cn3)ccc1-2)[C@@H]1C[C@H]2CC[C@@H](C1)N2 [Compound 172]	< 100 nM	100 to 1000 nM	100 to 1000 nM	100 to 1000 nM	100 to 1000 nM
c1cnn(-c2ccc3c(c2)COc2nc(N4CCCC5(CCNC5)C4)ccc2-3)c1 (stereo not shown) [Compound 192]	> 10000 nM	> 10000 nM	> 10000 nM	> 10000 nM	> 10000 nM
CCN(c1ccc2c(n1)OCc1cc(-n3cccn3)ccc1-2)[C@@H]1C[C@H]2CC[C@@H](C1)N2 [Compound 191]	100 to 1000 nM	100 to 1000 nM	1000 to 10000 nM	100 to 1000 nM	1000 to 10000 nM
CN(c1ccc2c(n1)OCc1cc(-n3cccn3)ccc1-2)[C@H]1[C@@H]2CNC[C@@H]21 [Compound 194]	> 10000 nM	1000 to 10000 nM	1000 to 10000 nM	> 10000 nM	> 10000 nM
CC1(C)CC(Nc2ccc3c(n2)CCOc2cc(-n4cccn4)ccc2-3)CC(C)(C)N1 [Compound 137, 13-(pyrazol-1-yl)-N-(2,2,6,6-tetramethylpiperidin-4-yl)-10-oxa-6-azatricyclo [9.4.0.0^[2,7]]pentadeca-1(11),2(7),3,5,12,14-hexaen-5-amine]	> 10000 nM	1000 to 10000 nM	1000 to 10000 nM	> 10000 nM	1000 to 10000 nM
CN(c1ccc2c(n1)OCc1cc(-n3nccn3)ccc1-2)[C@@H]1C[C@H]2CC[C@@H](C1)N2 [Compound 151]	< 100 nM	< 100 nM	< 100 nM	< 100 nM	100 to 1000 nM
CN(c1ccc2c(n1)OCCc1cc(-c3cn[nH]c3)ccc1-2)C1CC(C)(C)NC(C)(C)C1 [Compound 145]	1000 to 10000 nM	> 10000 nM	> 10000 nM	> 10000 nM	1000 to 10000 nM
CN(c1ccc2c(n1)OCc1cc(-c3cc(=O)n(C)cn3)ccc1-2)[C@@H]1C[C@H]2CC[C@@H](C1)N2 [Compound 162]	< 100 nM	< 100 nM	< 100 nM	< 100 nM	< 100 nM
CC1(C)CC(Nc2ccc3c(n2)OCc2cc(-n4cccn4)ccc2-3)CC(C)(C)N1 [Compound 165]	< 100 nM	100 to 1000 nM	100 to 1000 nM	100 to 1000 nM	100 to 1000 nM
Cc1[nH]ncc1-c1ccc2c(c1)COc1nc(N(C)[C@@H]3C[C@H]4CC[C@@H](C3)N4)ccc1-2 [Compound 154]	100 to 1000 nM	100 to 1000 nM	100 to 1000 nM	100 to 1000 nM	100 to 1000 nM
c1cnn(-c2ccc3c(c2)COc2nc(S[C@@H]4C[C@H]5CC[C@@H](C4)N5)ccc2-3)c1 [Compound 193]	> 10000 nM	> 10000 nM	> 10000 nM	1000 to 10000 nM	> 10000 nM
c1cc2c(cc1-c1cn[nH]c1)COc1nc(N[C@@H]3C[C@H]4CC[C@@H](C3)N4)cnc1-2 [Compound 143, (exo)-N-[8-(1H-pyrazol-4-yl)-6H-isochromeno[3,4-b]pyrazin-3-yl]-8-azabicyclo[3.2.1]octan-3-amine]	100 to 1000 nM	100 to 1000 nM	100 to 1000 nM	100 to 1000 nM	100 to 1000 nM
[2H]C([2H])([2H])N(c1ccc2c(n1)OCc1cc(-n3cccn3)ccc1-2)[C@@H]1C[C@H]2CC[C@@H](C1)N2 [Compound 201]	< 100 nM	100 to 1000 nM	100 to 1000 nM	100 to 1000 nM	100 to 1000 nM
CCN(c1ccc2c(n1)OCc1cc(-n3cccn3)ccc1-2)C1CC(C)(C)NC(C)(C)C1 [Compound 189]	1000 to 10000 nM	> 10000 nM	1000 to 10000 nM	> 10000 nM	> 10000 nM
CN(c1ccc2c(n1)CCOc1cc(-n3cccn3)ccc1-2)C1CC(C)(C)NC(C)(C)C1 [Compound 129, N-methyl-13-(pyrazol-1-yl)-N-(2,2,6,6-tetramethylpiperidin-4-yl)-10-oxa-6-azatricyclo[9.4.0.0^[2,7]]pentadeca-1(11),2(7),3,5,12,14-hexaen-5-amine]	> 10000 nM	> 10000 nM	> 10000 nM	> 10000 nM	> 10000 nM
c1cnn(-c2ccc3c(c2)OCCc2nc(N[C@@H]4C[C@H]5CC[C@@H](C4)N5)ccc2-3)c1 [Compound 136, N-[(1R,3S,5S)-8-azabicyclo[3.2.1]octan-3-yl]-13-(pyrazol-1-yl)-10-oxa-6-azatricyclo[9.4.0.0^[2,7]]pentadeca-1(11),2(7),3,5,12,14-hexaen-5-amine]	> 10000 nM	> 10000 nM	> 10000 nM	> 10000 nM	> 10000 nM
[2H]C([2H])([2H])N(c1ccc2c(n1)OCc1cc(-n3cccn3)ccc1-2)C1CCNCC1 [Compound 176]	1000 to 10000 nM	1000 to 10000 nM	1000 to 10000 nM	1000 to 10000 nM	> 10000 nM
COc1cc(-c2ccc3c(c2)COc2nc(N(C)[C@@H]4C[C@H]5CC[C@@H](C4)N5)ccc2-3)cnn1 [Compound 159]	< 100 nM	< 100 nM	< 100 nM	< 100 nM	< 100 nM
[2H]C([2H])([2H])N(c1ccc2c(n1)OCc1cc(-n3cccn3)ccc1-2)C1CC(C)(C)NC(C)(C)C1 [Compound 199]	1000 to 10000 nM	1000 to 10000 nM	1000 to 10000 nM	1000 to 10000 nM	> 10000 nM
c1cnn(-c2ccc3c(c2)COc2nc(O[C@@H]4C[C@H]5CC[C@@H](C4)N5)ccc2-3)c1 [Compound 188]	100 to 1000 nM	100 to 1000 nM	100 to 1000 nM	100 to 1000 nM	1000 to 10000 nM
[2H]C([2H])([2H])N(c1ccc2c(n1)OCc1cc(-n3cccn3)ccc1-2)[C@@H]1C[C@H]2CCC[C@@H](C1)N2 [Compound 200]	< 100 nM	< 100 nM	< 100 nM	< 100 nM	100 to 1000 nM
c1cnn(-c2ccc3c(c2)COc2nc(N4CCC5(CC4)CNC5)ccc2-3)c1 [Compound 169]	100 to 1000 nM	100 to 1000 nM	100 to 1000 nM	100 to 1000 nM	100 to 1000 nM
CCN(c1ccc2c(n1)OCc1cc(-n3cccn3)ccc1-2)C1CCNCC1 [Compound 177]	> 10000 nM	> 10000 nM	> 10000 nM	> 10000 nM	> 10000 nM
